Data taken from patent US11046716B2, “Beta-lactamase inhibitors” (priority 2015, dated 2021).

Experiments:
KPC-2 = target: T1, KPC-2 (Klebsiella pneumoniae, UniProt Q9F663); assay: β-lactamase enzyme inhibition assay, KPC-2 (imipenem substrate); format: biochemical; details: Class A; imipenem substrate, 300 nm; read-out: KPC-2
T1 construct: made in house; host or cells: E. coli BL21(DE3)
In short: (§1)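 Native untagged β-lactamases were expressed in E. coli BL21(DE3), then purified by cation exchange and gel filtration. Enzyme was preincubated with inhibitor for 15 min at 37 °C before substrate was added. Imipenem (A300) served KPC-2 and cefotaxime (A260) served SHV-5. IC50 was taken from initial hydrolysis rates relative to no-inhibitor controls.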

OXA-48 = OXA-48 (UniProt Q6XEC0); assay: β-lactamase enzyme inhibition assay, Class D oxacillinase; format: biochemical; details: read-out: OXA-48
VIM-2 = target: T2, VIM-2 (Escherichia coli, UniProt Q5U7L7); assay: β-lactamase enzyme inhibition assay, VIM-2 (nitrocefin substrate); format: biochemical; details: Class B; nitrocefin substrate, 486 nm; read-out: VIM-2
T2 construct: made in house; host or cells: E. coli BL21(DE3)
In short: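 Purified VIM-2 (Q sepharose anion exchange, Hepes pH 7.5, >90% pure) was preincubated with inhibitor at 37 °C for 15 min, then nitrocefin added at 100 μM final. Absorbance at 486 nm was followed for 10 min; IC50 was taken from maximum hydrolysis rates relative to inhibitor-free controls.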

AmpC = target: T3, AmpC (Enterobacter cloacae, UniProt P05364); assay: β-lactamase enzyme inhibition assay, p99 AmpC (nitrocefin substrate); format: biochemical
T3 construct: made in house; host or cells: E. coli BL21(DE3)
In short: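 Native untagged β-lactamases were expressed in E. coli BL21(DE3), then purified by cation exchange and gel filtration. Enzyme was preincubated with inhibitor for 15 min at 37 °C before substrate was added. IC50 was taken from initial hydrolysis rates relative to no-inhibitor controls.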

[1] = system: K. pneumoniae expressing the Class A carbapenemase KPC-2; assay: Broth microdilution MIC assay with meropenem, K. pneumoniae KPC-2; format: cell-based; details: Fixed Mero (meropenem) 4 μg/mL; K. p. 156319 KPC-3
In short: (§2)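 Test compound was titrated 2-fold from 16 to 0.125 μg/mL in cation-adjusted Mueller Hinton broth against a fixed 4 μg/ml β-lactam overlay. Plates were inoculated per CLSI broth microdilution, incubated 16-20 hours at 37° C, and the MIC of the test compound was read visually.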

[2] = system: P. aeruginosa expressing the Class B carbapenemase VIM-2; assay: Broth microdilution MIC assay with meropenem, P. aeruginosa VIM-2; format: cell-based; details: Fixed Mero (meropenem) 4 μg/mL; P. aerug. 2775 VIM-2
In short: as §2

[3] = system: K. pneumoniae producing the Class D carbapenemase OXA-48; assay: Broth microdilution MIC assay with meropenem, K. pneumoniae OXA-48; format: cell-based; details: Fixed Mero (meropenem) 4 μg/mL; K. p. 11978 OXA-48
In short: as §2

[4] = system: K. pneumoniae expressing the class A carbapenemase KPC-2 and the class B carbapenemase VIM-4; assay: Broth microdilution MIC assay with meropenem, K. pneumoniae KPC-2 and VIM-4; format: cell-based; details: Fixed Mero (meropenem) 4 μg/mL; K. p. A-1797 KPC-2 VIM-4
In short: as §2

SHV-5 = target: T4, SHV-5 (Klebsiella pneumoniae, UniProt P0A3M1); assay: β-lactamase enzyme inhibition assay, SHV-5 (cefotaxime substrate); format: biochemical
T4 construct: made in house; host or cells: E. coli BL21(DE3)
In short: as §1

[5] = system: E. cloacae expressing the Class C P99; assay: Broth microdilution MIC assay with ceftazidime, E. cloacae P99; format: cell-based; details: Fixed CAZ (ceftazidime) 4 μg/mL; E. cl. 144200 p99 AmpC
In short: as §2

[6] = system: E. coli expressing the Class A Extended Spectrum Beta-Lactamase (ESBL) CTX-M-15; assay: Broth microdilution MIC assay with ceftazidime, E. coli CTX-M-15; format: cell-based; details: Fixed CAZ (ceftazidime) 4 μg/mL; E. coli ESBL4 CTX-M-15
In short: as §2

T3 sequence (P05364 21-381): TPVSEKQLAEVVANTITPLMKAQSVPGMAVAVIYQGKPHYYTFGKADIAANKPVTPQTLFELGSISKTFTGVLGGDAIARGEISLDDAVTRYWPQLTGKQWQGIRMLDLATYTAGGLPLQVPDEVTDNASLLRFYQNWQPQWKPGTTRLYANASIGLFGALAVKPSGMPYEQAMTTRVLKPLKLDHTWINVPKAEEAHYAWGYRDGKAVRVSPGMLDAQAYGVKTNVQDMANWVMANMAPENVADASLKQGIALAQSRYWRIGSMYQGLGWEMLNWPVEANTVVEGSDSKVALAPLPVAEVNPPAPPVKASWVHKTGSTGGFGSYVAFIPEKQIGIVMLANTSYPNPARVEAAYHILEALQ
T1 sequence (Q9F663 25-293, looked up): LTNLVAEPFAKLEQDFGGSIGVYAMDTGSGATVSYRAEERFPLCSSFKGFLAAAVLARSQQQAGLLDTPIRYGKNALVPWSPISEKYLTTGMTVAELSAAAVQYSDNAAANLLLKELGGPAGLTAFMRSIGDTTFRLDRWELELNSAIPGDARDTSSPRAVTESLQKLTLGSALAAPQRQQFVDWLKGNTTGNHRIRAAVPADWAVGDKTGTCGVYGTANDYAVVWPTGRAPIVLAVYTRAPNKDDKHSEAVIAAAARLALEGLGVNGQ
T4 sequence (P0A3M1 22-286): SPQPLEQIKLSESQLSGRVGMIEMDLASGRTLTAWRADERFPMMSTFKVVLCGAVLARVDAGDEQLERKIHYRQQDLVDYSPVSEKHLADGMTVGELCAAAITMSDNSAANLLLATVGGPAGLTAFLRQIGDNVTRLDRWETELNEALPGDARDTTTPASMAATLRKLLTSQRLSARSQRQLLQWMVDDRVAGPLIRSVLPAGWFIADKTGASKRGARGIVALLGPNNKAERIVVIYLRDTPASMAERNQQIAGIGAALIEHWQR

SMILES | IC50 (KPC-2) [nM] | IC50 (OXA-48) [nM] | IC50 (VIM-2) [nM] | IC50 (AmpC) [nM] | MIC (μg/mL) of Exemplary Compounds in presence of fixed β-lactams: K. p. 156319 KPC-3 [1] | MIC (μg/mL) of Exemplary Compounds in presence of fixed β-lactams: P. aerug. 2775 VIM-2 [2] | MIC (μg/mL) of Exemplary Compounds in presence of fixed β-lactams: K. p. 11978 OXA-48 [3] | MIC (μg/mL) of Exemplary Compounds in presence of fixed β-lactams: K. p. A-1797 KPC-2 VIM-4 [4] | IC50 (SHV-5) [nM] | MIC (μg/mL) of Exemplary Compounds in presence of fixed β-lactams: E. cl. 144200 p99 AmpC [5] | MIC (μg/mL) of Exemplary Compounds in presence of fixed β-lactams: E. coli ESBL4 CTX-M-15 [6]
O=C(Cc1nnn[nH]1)N[C@H]1Cc2cccc(C(=O)O)c2OB1O [Example 40, (R)-3-(2-(1H-tetrazol-5-yl)acetamido)-2-hydroxy-3,4-dihydro-2H-benzo[e][1,2]oxaborinine-8-carboxylic acid] | < 100 | 100 to 1000 | 1000 to 10000 | < 100 | C (C represents an MIC of <1 μg/mL) | B (B represents an MIC between 1 and 16 μg/mL inclusive) | B (B represents an MIC between 1 and 16 μg/mL inclusive) | B (B represents an MIC between 1 and 16 μg/mL inclusive) | < 100 | C (C represents an MIC of <1 μg/mL) | C (C represents an MIC of <1 μg/mL)
NCc1cn(C[C@H](N)C(=O)N[C@H]2Cc3cccc(C(=O)O)c3OB2O)nn1 [Example 114, (R)-3-((S)-2-amino-3-(4-(aminomethyl)-1H-1,2,3-triazol-1-yl)propanamido)-2-hydroxy-3,4-dihydro-2H-benzo[e][1,2]oxaborinine-8-carboxylic acid] | 100 to 1000 | 1000 to 10000 | 1000 to 10000 | < 100 | C (C represents an MIC of <1 μg/mL) | C (C represents an MIC of <1 μg/mL) | B (B represents an MIC between 1 and 16 μg/mL inclusive) | B (B represents an MIC between 1 and 16 μg/mL inclusive) | 10000 to 100000 | C (C represents an MIC of <1 μg/mL) | C (C represents an MIC of <1 μg/mL)
O=C(Cn1nnc(CN2CCOCC2)c1CN1CCOCC1)N[C@H]1Cc2cccc(C(=O)O)c2OB1O [Example 32, (R)-3-(2-(4,5-bis(morpholinomethyl)-1H-1,2,3-triazol-1-yl)acetamido)-2-hydroxy-3,4-dihydro-2H-benzo[e][1,2]oxaborinine-8-carboxylic acid] | < 100 | 100 to 1000 | 100 to 1000 | < 100 | B (B represents an MIC between 1 and 16 μg/mL inclusive) | B (B represents an MIC between 1 and 16 μg/mL inclusive) | A (A represents an MIC>16 μg/mL) | A (A represents an MIC>16 μg/mL) | < 100 | A (A represents an MIC>16 μg/mL) | B (B represents an MIC between 1 and 16 μg/mL inclusive)
N=C(N)N1CC(c2cn(CC(=O)N[C@H]3Cc4cccc(C(=O)O)c4OB3O)nn2)C1 [Example 91, (R)-3-(2-(4-(1-carbamimidoylazetidin-3-yl)-1H-1,2,3-triazol-1-yl)acetamido)-2-hydroxy-3,4-dihydro-2H-benzo[e][1,2]oxaborinine-8-carboxylic acid] | < 100 | 1000 to 10000 | 100 to 1000 | < 100 | C (C represents an MIC of <1 μg/mL) | B (B represents an MIC between 1 and 16 μg/mL inclusive) | B (B represents an MIC between 1 and 16 μg/mL inclusive) | B (B represents an MIC between 1 and 16 μg/mL inclusive) | < 100 | C (C represents an MIC of <1 μg/mL) | C (C represents an MIC of <1 μg/mL)
NCCn1cc(C(=O)N[C@H]2Cc3cccc(C(=O)O)c3OB2O)nn1 [Example 59, (R)-3-(1-(2-aminoethyl)-1H-1,2,3-triazole-4-carboxamido)-2-hydroxy-3,4-dihydro-2H-benzo[e][1,2]oxaborinine-8-carboxylic acid] | < 100 | 1000 to 10000 | < 100 | < 100 | B (B represents an MIC between 1 and 16 μg/mL inclusive) | C (C represents an MIC of <1 μg/mL) | A (A represents an MIC>16 μg/mL) | B (B represents an MIC between 1 and 16 μg/mL inclusive) | < 100 | C (C represents an MIC of <1 μg/mL) | C (C represents an MIC of <1 μg/mL)
N=C(N)NCCn1nnnc1CC(=O)N[C@H]1Cc2cccc(C(=O)O)c2OB1O [Example 47, (R)-3-(2-(1-(2-guanidinoethyl)-1H-tetrazol-5-yl)acetamido)-2-hydroxy-3,4-dihydro-2H-benzo[e][1,2]oxaborinine-8-carboxylic acid] | < 100 | 1000 to 10000 | < 100 | < 100 | C (C represents an MIC of <1 μg/mL) | C (C represents an MIC of <1 μg/mL) | C (C represents an MIC of <1 μg/mL) | B (B represents an MIC between 1 and 16 μg/mL inclusive) | < 100 | C (C represents an MIC of <1 μg/mL) | C (C represents an MIC of <1 μg/mL)
N=C(N)NCc1nc(CC(=O)N[C@H]2Cc3cccc(C(=O)O)c3OB2O)cs1 [Example 24, (R)-3-(2-(2-(guanidinomethyl)thiazol-4-yl)acetamido)-2-hydroxy-3,4-dihydro-2H-benzo[e][1,2]oxaborinine-8-carboxylic acid] | < 100 | 100 to 1000 | 100 to 1000 | < 100 | B (B represents an MIC between 1 and 16 μg/mL inclusive) | B (B represents an MIC between 1 and 16 μg/mL inclusive) | B (B represents an MIC between 1 and 16 μg/mL inclusive) | B (B represents an MIC between 1 and 16 μg/mL inclusive) | < 100 | C (C represents an MIC of <1 μg/mL) | C (C represents an MIC of <1 μg/mL)
CNCCNC(=O)c1cn(CC(=O)N[C@H]2Cc3cccc(C(=O)O)c3OB2O)nn1 [Example 87, (R)-2-hydroxy-3-(2-(4-((2-(methylamino)ethyl)carbamoyl)-1H-1,2,3-triazol-1-yl)acetamido)-3,4-dihydro-2H-benzo[e][1,2]oxaborinine-8-carboxylic acid] | < 100 | 1000 to 10000 | < 100 | < 100 | C (C represents an MIC of <1 μg/mL) | C (C represents an MIC of <1 μg/mL) | B (B represents an MIC between 1 and 16 μg/mL inclusive) | C (C represents an MIC of <1 μg/mL) | 100 to 1000 | C (C represents an MIC of <1 μg/mL) | C (C represents an MIC of <1 μg/mL)
